Source: paper PMC10457369, “Novel VEGFR2 inhibitors with thiazoloquinoxaline scaffold targeting hepatocellular carcinoma with lower cardiotoxic impact” (Scientific Reports, 2023)
Read-outs that look alike come from different tables or passages of the source.

How the values were obtained:
[1] = biological target: T1, VEGFR-2 (Homo sapiens, UniProt P35968); assay: In-vitro VEGFR-2 kinase assay (BPS Bioscience kit, Kinase-Glo MAX); type: biochemical; details: mean ± S.D of three experiments
T1 construct: purchased BPS Bioscience 40325
Protocol: The VEGFR-2 Kinase Assay Kit [Catalog no., 40325, BPS Bioscience®, USA] is designed to measure VEGFR-2 kinase activity for screening and profiling applications using Kinase-Glo® MAX as a detection reagent. The VEGFR-2 Kinase Assay Kit comes in a convenient 96-well format, with enough purified recombinant VEGFR2 enzyme and VEGFR2 substrate. The assay protocol was carried out according to manufacturer instructions.

[2] = test system: hepatic VEGF; assay: Immunohistochemistry expression of VEGF in liver tissue of irradiated mice; type: in vivo; details: 50 mg/kg p.o., 3 days, 8 Gy irradiated mice, vs irradiated animals
Protocol: (§1) Whole body γ-irradiation of mice was performed at the NCRRT using the Gamma Cell-40 biological irradiator with a Cesium-137 irradiator unit, produced by the atomic energy of Canada limited (Sheridan science and technology park, Mississauga, Ontario, Canada). Mice were exposed to an acute dose of 8 Gy according to Yoo et al..
(§2) A total 32 mice were randomly allocated into 4 groups as follows: 1- control normal [Control] mice received vehicle (10% DMSO). 2- Irradiated mice (8 Gy) received vehicle [IRR]. […] 4- Irradiated mice treated with Compound 4d (50 mg/ kg body wt./ p.o) for 3 successive days, [IRR + cmp 4d]. After 3 days, all animals were anesthetized with ketamine (80 mg/ kg), blood samples were collected via retro-orbital plexus, and then serum samples were separated after centrifugation. Heart and liver samples were dissected and rapidly washed with cool saline then heart samples were stored at -80 °C till assay time. One lobe of liver was embedded in 10% formalin for immunohistochemistry assay.
Immunohistochemical study was carried out on paraffin tissue sections prepared for the detection VEGF, liver tissue sections were incubated separately with anti- VEGF (Gene Tex, USA). The expression of each marker was visualized by the chromogen 3,3-diaminobenzidine tetrahydrochloridem (DAB, Sigma Chemical Co.).

[3] = test system: heart creatine kinase (CK); assay: Heart creatine kinase (CK) ELISA in 8 Gy irradiated mice; type: in vivo; details: 50 mg/kg p.o., 3 days
Protocol: as §1, §2
(§3) Heart tissues of mice were weighted and minced then homogenized in cold fresh lysis buffer, the homogenate was centrifuged for 5 min at 4000 rpm, and then the supernatant was used for assay. Cardiac contents of CK, TNF-α and Caspase-9 were measured according to manufacturer instructions using CK ELISA kit [catalog no. EK730963, AFG Bioscience®, USA], TNF-α ELISA kit [catalog no. SEA626Ra, Cloud-Clone Corp®, USA] and Caspase-9 ELISA kit [catalog no. E-EL-R02054, Elabsciense®, USA], respectively.

[4] = test system: serum lactate dehydrogenase (LDH); assay: Serum LDH in 8 Gy irradiated mice; type: in vivo; details: 50 mg/kg p.o., 3 days
Protocol: as §1, §2
Serum LDH was estimated kinetically using Spectrum® coloring assay Kit [Egyptian company for biotechnology, SAE®, Egypt]. It was carried according to manufacturer's instructions; the values were expressed as IU/ml.

[5] = test system: mice; details: male, Swiss albino, mouse, in vivo, po, 14 days
Protocol: For the study of the compound 4d's oral toxicity, 30 male Swiss albino mice were used. They were randomly allocated into 5 groups; the first group of mice (n = 6) received a vehicle and was used as control, while the other four groups, each received a different acute dose of compound 4d dissolved in 0.05% Tween 80 (9005–65-6) (200, 500, 800, and 1000 mg/kg p.o.). Up to 14 days after treatment, clinical toxicity symptoms (death, more than 20% weight loss, diarrhea, lethargy, tremors, and convulsions) were noted.

[6] = test system: cardiac caspase-9; assay: Cardiac caspase-9 ELISA in 8 Gy irradiated mice; type: in vivo; details: 50 mg/kg p.o., 3 days
Protocol: as §1, §2
as §3, with “SEA626Ra, Cloud-Clone Corp®, USA] and Caspase-9 ELISA kit [catalog no. E-EL-R02054, Elabsciense®, USA], respectively.” left out

[7] = test system: cardiac TNF-α; assay: Cardiac TNF-α ELISA in 8 Gy irradiated mice; type: in vivo; details: in comparison to control irradiated group, 50 mg/kg p.o., 3 days
Protocol: as §1, §2
as §3, with “SEA626Ra, Cloud-Clone Corp®, USA] and Caspase-9 ELISA kit [catalog no. E-EL-R02054, Elabsciense®, USA], respectively.” left out

[8] = test system: serum catalase; assay: Serum catalase activity in 8 Gy irradiated mice; type: in vivo; details: 50 mg/kg p.o., 3 days
Protocol: as §1, §2
Serum catalase was assessed colorimetrically in all groups according to manufacturer instructions using coloring endpoint kit [Biodiagnostic co.®, Egypt].

[9] = test system: HepG2 cells; assay: HepG2 cell viability, SRB assay; type: cell-based; details: Homo sapiens
Protocol: (§4) Hepatocellular carcinoma (HepG2) and rat heart/myocardium (H9C2) were obtained from Nawah Scientific Inc., (Mokattam, Cairo, Egypt). Cells were maintained in DMEM media supplemented with […] of streptomycin (3810–74-0), 100 units/mL of penicillin (113–98-4) and 10% of heat-inactivated fetal bovine serum in humidified, 5% (v/v) CO2 atmosphere at 37 °C.
(§5) Cell viability was assessed by SRB assay,[67]. Aliquots of 100 μL cell suspension (5 × 10^3 cells) were in 96-well plates and incubated in complete media for 24 h. […] After 72 h of drug exposure, cells were fixed by replacing media with 150 μL of 10% TCA (76–03-9) and incubated at 4 °C for 1 h. The TCA solution was removed, and the cells were washed 5 times with distilled water. Aliquots of 70 μL SRB (3520–42-1) solution (0.4% w/v) were added and incubated in a dark place at room temperature for 10 min. Plates were washed 3 times with 1% acetic acid (64–19-7) and allowed to air-dry overnight. Then, 150 μL of TRIS (77–86-1) (10 mM) was added to dissolve protein-bound SRB stain; the absorbance was measured at 540 nm using a BMG LABTECH®- FLUOstar Omegammicroplate reader (Ortenberg, Germany).

[10] = test system: H9C2 cells; assay: H9C2 cardiomyocyte viability, SRB assay; type: cell-based, rat; details: for IC50: 72 h, SRB
Protocol: as §4, §5

[11] = 72 h, SRB, read-out: HepG2 IC50

T1 sequence (P35968 20-1356): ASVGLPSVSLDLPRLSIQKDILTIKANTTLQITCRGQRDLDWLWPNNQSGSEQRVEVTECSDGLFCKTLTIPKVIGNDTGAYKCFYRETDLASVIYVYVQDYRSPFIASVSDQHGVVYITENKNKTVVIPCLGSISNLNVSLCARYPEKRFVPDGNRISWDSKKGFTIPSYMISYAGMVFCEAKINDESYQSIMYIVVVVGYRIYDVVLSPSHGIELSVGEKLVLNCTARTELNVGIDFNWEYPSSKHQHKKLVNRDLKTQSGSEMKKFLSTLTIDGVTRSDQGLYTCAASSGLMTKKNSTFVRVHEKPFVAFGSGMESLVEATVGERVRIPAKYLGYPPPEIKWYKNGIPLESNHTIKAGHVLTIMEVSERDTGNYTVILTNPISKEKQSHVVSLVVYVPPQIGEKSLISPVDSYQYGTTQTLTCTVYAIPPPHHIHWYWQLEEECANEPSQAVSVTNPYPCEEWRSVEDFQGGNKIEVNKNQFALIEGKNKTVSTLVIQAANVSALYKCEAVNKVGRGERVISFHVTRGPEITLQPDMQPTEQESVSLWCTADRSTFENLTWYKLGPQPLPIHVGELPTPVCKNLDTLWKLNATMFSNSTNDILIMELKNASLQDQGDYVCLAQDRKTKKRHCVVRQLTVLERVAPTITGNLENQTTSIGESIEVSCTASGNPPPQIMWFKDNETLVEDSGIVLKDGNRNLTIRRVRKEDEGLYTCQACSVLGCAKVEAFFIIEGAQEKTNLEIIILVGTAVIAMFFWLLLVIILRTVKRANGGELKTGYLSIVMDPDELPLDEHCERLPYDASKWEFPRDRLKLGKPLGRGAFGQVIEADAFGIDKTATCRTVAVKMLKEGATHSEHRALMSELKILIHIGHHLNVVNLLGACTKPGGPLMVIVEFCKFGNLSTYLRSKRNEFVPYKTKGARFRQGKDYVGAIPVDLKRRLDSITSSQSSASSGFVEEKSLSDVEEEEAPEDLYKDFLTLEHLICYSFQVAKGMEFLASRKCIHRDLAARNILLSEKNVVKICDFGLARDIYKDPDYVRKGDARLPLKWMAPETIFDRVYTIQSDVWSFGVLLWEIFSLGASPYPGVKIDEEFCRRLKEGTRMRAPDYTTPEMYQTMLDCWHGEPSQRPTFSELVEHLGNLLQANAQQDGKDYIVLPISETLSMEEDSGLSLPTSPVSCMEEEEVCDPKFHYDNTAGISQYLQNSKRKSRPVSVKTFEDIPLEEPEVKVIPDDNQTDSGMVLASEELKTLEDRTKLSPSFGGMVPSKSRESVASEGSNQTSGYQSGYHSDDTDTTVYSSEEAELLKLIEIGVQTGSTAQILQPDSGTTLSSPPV

NS(=O)(=O)c1ccc(N=c2[nH]c3nc4ccccc4nc3s2)cc1 [Compound 4a, 4-(Thiazolo[4,5-b]quinoxalin-2(3H)-ylideneamino)benzenesulfonamide]
melting point: 165 to 167 °C | IC50 [1]: 0.169 ± 0.0074 µM

CC(=O)NS(=O)(=O)c1ccc(N=c2[nH]c3nc4ccccc4nc3s2)cc1 [Compound 4b, N-((4-(Thiazolo[4,5-b]quinoxalin-2(3H)ylideneamino)phenyl)sulfonyl)-acetamide]
melting point: 245 to 247 °C | IC50 [1]: 0.132 ± 0.0057 µM

N=C(N)NS(=O)(=O)c1ccc(N=c2[nH]c3nc4ccccc4nc3s2)cc1 [Compound 4c, N-Carbamimidoyl-4-(thiazolo[4,5-b]quinoxalin-2(3H)-ylideneamino) benzene-esulfonamide]
melting point: > 260 °C | IC50 [1]: 0.254 ± 0.011 µM

O=S(=O)(Nc1ccccn1)c1ccc(N=c2[nH]c3nc4ccccc4nc3s2)cc1 [Compound 4d, N-(pyridin-2-yl)-4-(thiazolo[4,5-b]quinoxalin-2(3H)-ylideneamino) benzene-sulfonamide]
expression of VEGF in liver tissue [2]: promisingly suppressed | CK activity compared to normal values [3]: not significantly different from normal values | CK level compared to IRR non-treated group [3]: did not significantly lower CK level | serum LDH compared to normal values [4]: non-significant deviation from normal LDH values | decrease in serum LDH ([4]; compared to sorafenib treated group): 40.83% | high level of safety up to [5]: up to 1000 mg/kg | decrease in Caspase-9 ([6]; compared to control irradiated animals): 20.63% | reduction in cardiac TNF-α [7]: 35.75% | serum catalase activity [8]: normal catalase activity | IC50 [1]: 0.061 ± 0.0026 µM | viability at 0.01 µM ([9]; 72 h, SRB): 98.55 ± 0.47% | viability at 0.1 µM ([9]; 72 h, SRB): 98.32 ± 0.97% | viability at 1 µM ([9]; 72 h, SRB): 98.1 ± 1.8% | viability at 10 µM ([9]; 72 h, SRB): 6.62 ± 0.5% | viability at 100 µM ([9]; 72 h, SRB): 3.81 ± 0.24% | IC50 [9, 11]: 4.31 µM | IC50 ([9]; read-out: suppressing potency on HepG2 cells proliferation): 4.31 µM | times less cytotoxic than sorafenib ([10]; H9C2 cardiomyocytes): 2.93 times

O=S(=O)(Nc1ncccn1)c1ccc(N=c2[nH]c3nc4ccccc4nc3s2)cc1 [Compound 4e, N-(Pyrimidin-2-yl)-4-(thiazolo[4,5-b]quinoxalin-2(3H)-ylideneamino) benzene-sulfonamide]
melting point: 223 to 225 °C | IC50 [1]: 0.112 ± 0.0048 µM

Cc1cc(NS(=O)(=O)c2ccc(N=c3[nH]c4nc5ccccc5nc4s3)cc2)no1 [Compound 4f, N-(5-Methylisoxazol-3-yl)-4-(thiazolo[4,5-b]quinoxalin-2(3H)-ylideneamino) benzene-sulfonamide]
melting point: 186 to 188 °C | IC50 [1]: 0.0833 ± 0.0037 µM | viability at 0.01 µM ([9]; 72 h, SRB): 97.6 ± 1.26% | viability at 0.1 µM ([9]; 72 h, SRB): 97.1 ± 1.06% | viability at 1 µM ([9]; 72 h, SRB): 96.6 ± 1.2% | viability at 10 µM ([9]; 72 h, SRB): 95.5 ± 3% | viability at 100 µM ([9]; 72 h, SRB): 94 ± 2.03% | IC50 [9, 11]: > 100 µM

O=S(=O)(Nc1nccs1)c1ccc(N=c2[nH]c3nc4ccccc4nc3s2)cc1 [Compound 4g, N-(Thiazol-2-yl)-4-(thiazolo[4,5-b]quinoxalin-2(3H)-ylideneamino) benzene-sulfonamide]
melting point: 238 to 240 °C | IC50 [1]: 0.0998 ± 0.0043 µM

Cc1ccnc(NS(=O)(=O)c2ccc(N=c3[nH]c4nc5ccccc5nc4s3)cc2)n1 [Compound 4h, N-(4-Methylpyrimidin-2-yl)-4-(thiazolo[4,5-b]quinoxalin-2(3H)-ylideneamino)-benzenesulfonamide]
melting point: 199 to 201 °C | IC50 [1]: 0.217 ± 0.0094 µM

Cc1cc(C)nc(NS(=O)(=O)c2ccc(N=c3[nH]c4nc5ccccc5nc4s3)cc2)n1 [Compound 4i, N-(4,6-Dimethylpyrimidin-2-yl)-4-(thiazolo[4,5-b]quinoxalin-2(3H)-ylideneamino) benzenesulfonamide]
melting point: 246 to 248 °C | IC50 [1]: 0.288 ± 0.013 µM

COc1cc(NS(=O)(=O)c2ccc(N=c3[nH]c4nc5ccccc5nc4s3)cc2)nc(OC)n1 [Compound 4j, N-(2,6-Dimethoxypyrimidin-4-yl)-4-(thiazolo[4,5-b]quinoxalin-2(3H)-ylidene-amino)-benzenesulfonamide]
melting point: 249 to 251 °C | IC50 [1]: 0.368 ± 0.016 µM

CNC(=O)c1cc(Oc2ccc(NC(=O)Nc3ccc(Cl)c(C(F)(F)F)c3)cc2)ccn1 [Sorafenib, reference compound]
expression of VEGF in liver tissue [2]: promisingly suppressed | increment in CK enzymatic activity ([3]; vs normal): 35.88% | increase in serum LDH ([4]; vs normal): 106.06% | increase in cardiac caspase-9 levels ([6]; over normal values): 29.83% | reduction in cardiac TNF-α [7]: 31.87% | decrease in serum catalase activity ([8]; vs normal): 6.19% | viability at 0.01 µM ([9]; 72 h, SRB): 99.58 ± 0.94% | viability at 0.1 µM ([9]; 72 h, SRB): 98.2 ± 3.19% | viability at 1 µM ([9]; 72 h, SRB): 87.1 ± 2.02% | viability at 10 µM ([9]; 72 h, SRB): 11.3 ± 0.31% | viability at 100 µM ([9]; 72 h, SRB): 4.05 ± 0.1% | IC50 [9, 11]: 2.97 µM | IC50 [10]: 33.5 µM | IC50 ([10]; listed as sorafenib): 98.1 µM
